Assays:
[1] = target: T1, Oxysterols receptor LXR-beta (Homo sapiens, UniProt P55055)
T1 sequence (P55055 whole entry): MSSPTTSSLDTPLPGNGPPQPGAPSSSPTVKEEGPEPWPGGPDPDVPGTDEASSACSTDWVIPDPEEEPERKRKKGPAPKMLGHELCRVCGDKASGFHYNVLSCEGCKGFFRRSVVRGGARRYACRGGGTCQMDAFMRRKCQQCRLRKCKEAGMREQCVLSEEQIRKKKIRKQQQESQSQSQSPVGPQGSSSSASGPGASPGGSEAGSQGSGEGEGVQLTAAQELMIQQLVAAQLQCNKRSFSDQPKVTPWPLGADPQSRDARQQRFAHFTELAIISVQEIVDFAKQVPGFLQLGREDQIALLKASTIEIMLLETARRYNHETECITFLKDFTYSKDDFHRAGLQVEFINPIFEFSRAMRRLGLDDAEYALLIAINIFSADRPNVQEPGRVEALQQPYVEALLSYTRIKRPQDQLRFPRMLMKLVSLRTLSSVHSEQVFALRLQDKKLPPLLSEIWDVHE

[2] = target: T1, Oxysterols receptor LXR-beta; assay: Agonist activity at human recombinant LXRbeta ligand binding domain in human HuH7 cells co-transfected with fused Gal4-DBD by transactivation assay; type: cell-based, Huh-7
[3] = target: T2, Oxysterols receptor LXR-alpha (Homo sapiens, UniProt Q13133)
HepG2 [4] = assay: Effect on SREBP1c gene expression in human HepG2 cells relative to TO901317; type: functional
HepG2 [5] = assay: Effect on triglyceride accumulation in human HepG2 cells relative to TO901317; type: functional
THP-1 [6] = assay: Stimulation of [3H]cholesterol efflux in human THP1 foam cells loaded with ac-LDL; type: functional, cell-based
THP-1 [7] = assay: Stimulation of [3H]cholesterol efflux in human THP1 foam cells loaded with ac-LDL relative to TO901317; type: functional
HepG2 [8] = assay: Effect on SREBP1c gene expression in human HepG2 cells; type: functional, cell-based
THP-1 [9] = assay: Effect on ABCA1 gene expression in human differentiated THP1 cells relative to TO901317; type: functional
Mus musculus [10] = assay: Decrease in total cholesterol level in LDL receptor knockout C57BL/6 mouse plasma at 10 mg/kg administered with Western diet after 8 weeks; type: functional; set-up: scale not given: the % may be the effect or the level left
HepG2 [11] = assay: Effect on triglyceride accumulation in human HepG2 cells; type: functional, cell-based
Syrian golden hamster [12] = assay: Effect on triglyceride level in golden Syrian hamster plasma at 3 mg/kg administered with chow diet for 7 days measured after 2 hrs of final dose; type: functional, Mesocricetus auratus
Mus musculus [13] = assay: Reduction in atherosclerotic lesion size in LDL receptor knockout C57BL/6 mouse thoracic aorta at 10 mg/kg administered with Western diet after 8 weeks by oil Red-O staining; type: functional; set-up: scale not given: the % may be the effect or the level left
Syrian golden hamster [14] = assay: Induction of FAS gene expression in golden Syrian hamster liver at 3 mg/kg administered with chow diet for 7 days measured after 2 hrs of final dose by real time PCR; type: functional, Mesocricetus auratus
[15] = target: T2, Oxysterols receptor LXR-alpha; remark: listed apart in the source
Mus musculus [16] = assay: Increase in CYP7A1 gene expression in LDL receptor knockout C57BL/6 mouse liver at 10 mg/kg administered with Western diet; type: functional
THP-1 [17] = assay: Effect on ABCA1 gene expression in human differentiated THP1 cells; type: functional, cell-based
Mus musculus [18] = assay: Upregulation of ABCA1 gene expression in LDL receptor knockout C57BL/6 mouse duodenum at 10 mg/kg administered with Western diet; type: functional; details: route oral
[19] = Cmax in male C57 mice after 10 mg/kg oral dose; type: ADME, organism-based; set-up: dose 10 mg/kg, route oral; details: C57, mouse, in vivo
[20] = Terminal half life in C57 mouse at 10 mg/kg, po; type: ADME, organism-based; set-up: dose 10 mg/kg, route oral; details: in vivo, read-out: beta t1/2 (converted)
[21] = Clearance in C57 mouse at 1 mg/kg, iv and 10 mg/kg, po; type: ADME, organism-based; details: in vivo
[22] = AUC (0 to infinity) in C57 mouse at 1 mg/kg, iv and 10 mg/kg, po; type: ADME, organism-based; details: plasma
[23] = Volume of distribution at steady state in C57 mouse at 1 mg/kg, iv and 10 mg/kg, po; type: ADME, organism-based; details: in vivo, read-out: Vdss
[24] = Half life in C57 mouse at 1 mg/kg, iv; type: ADME, organism-based; set-up: dose 1 mg/kg, route intravenous; details: in vivo
[25] = Tmax in C57 mouse at 1 mg/kg, iv and 10 mg/kg, po; type: ADME, organism-based; details: in vivo
[26] = Bioavailability in C57 mouse at 1 mg/kg, iv and 10 mg/kg, po; type: ADME, organism-based; details: in vivo

| EC50 [2] | EC50 (THP-1 [6]) | EC50 (HepG2 [8]) | EC50 (HepG2 [11]) | Structure (SMILES) | Efficacy (HepG2 [4]) | Efficacy (HepG2 [5]) | Efficacy (THP-1 [7]) | Efficacy (THP-1 [9]) | Activity (Mus musculus [10]) | Activity (Mus musculus [13]) | also measured |
| --- | --- | --- | --- | --- | --- | --- | --- | --- | --- | --- | --- |
| 90 nM | – | – | – | O=C(O)Cc1ccc(CNc2cccc(-c3c(Cc4ccccc4)cnc4c(C(F)(F)F)cccc34)c2)cc1 | – | – | – | – | – | – | IC50 [1]: 2 nM; IC50 [3]: 8 nM |
| – | 3 nM | 61 nM | – | O=S(=O)(c1ccccc1)N(CC(F)(F)F)c1ccc(C(O)(C(F)(F)F)C(F)(F)F)cc1 [T091317] | 100% | 100% | 100% | 100% | – | – | – |
| – | 6 nM | 120 nM | 223 nM | O=C(O)Cc1ccc(COc2cccc(-c3c(Cc4ccccc4)cnc4c(C(F)(F)F)cccc34)c2)cc1 | 96% | 85% | 88% | 155% | 20% | 38% | Activity (Syrian golden hamster [12]): 25%; fold change (FC) (Syrian golden hamster [14]): 4 |
| 310 nM | 31 nM | 210 nM | 2000 nM | O=C(O)Cc1cccc(OCCCN(Cc2cccc(C(F)(F)F)c2Cl)CC(c2ccccc2)c2ccccc2)c1 | 137% | 45% | 84% | 178% | 17% | 40% | EC50 [15]: 660 nM; fold change (FC) (Mus musculus [16]): 1.9; EC50 (THP-1 [17]): 434 nM; fold change (FC) (Mus musculus [18]): 6.9 |
| – | – | – | – | FC(F)(F)c1cccc2c(-c3ccccc3)n(Cc3ccccc3)nc12 | – | – | – | – | – | – | Cmax [19]: 124 ng/mL; half-life [20]: 2.2 h; clearance [21]: 81 mL/min/kg; AUC(0-inf) [22]: 321 ng·h/mL; Vd [23]: 5.2 L/kg; half-life [24]: 1.9 h; Tmax [25]: 0.25 h; bioavailability [26]: 16% |

Reference: ChEMBL document CHEMBL1152299, “Indazole-based liver X receptor (LXR) modulators with maintained atherosclerotic lesion reduction activity but diminished stimulation of hepatic triglyceride synthesis” (J Med Chem, 2008)
